Data from patent US20150182597A1, “COMPOSITIONS COMPRISING HYALURONIC ACID AND DERMATAN SULPHATE FOR THE TREATMENT OF BEING OVERWEIGHT AND OBESITY” (BIOIBERICA, S.A., priority 2012, published 2015).

Tests used:
[1] = tested on: mouse embryonic fibroblasts (MEFs); assay: Spontaneous adipogenesis of MEFs in growth medium: lipid accumulation under phase contrast microscopy; format: cell-based; settings: day 8 of culture in growth medium, HA 80 μg/mL, DS 20 μg/mL, HA8O+DS20 100 μg/mL
Protocol: MEFs obtained from embryos of 13 days gestational age were cultured in monolayer in growth medium consisting of […] (Invitrogen, Carlsbad, Calif., USA) basal medium supplemented with […] supplement (7.5%), foetal bovine serum (7.5%) and antibiotics, in 12-well culture plates of 1 mL capacity/well, following a previously described protocol (J. B. Hansen et al., Proc. Natl. Acad. Sci. USA 101, 4112-4117 (2004)). Two days after reaching confluence, which is considered day 0 of culture, the cells were exposed to: carrier (water); hyaluronic acid (HA) at a final concentration (f.c.) of 80 μg/mL; dermatan sulphate (DS) at an f.c. of 20 μg/mL; chondroitin sulphate (CS) at an f.c. of 20 μg/mL; or composition of the present invention HA8O+DS20 at an f.c. of 100 μg/mL, containing 80 μg of HA and 20 μg of DS per mL. […] The mRNA levels of the genes related to adipocyte differentiation PPARgamma, C/EBPalpha and fatty acid synthase (FAS) were determined by real-time PCR from the total RNA extracted from the cells with Trizol reagent and reverse-transcribed with reverse transcriptase, and using the mRNA of beta-actin as an internal control. […] The statistical significance of differences with respect to treatment with the carrier was analyzed by means of Student's t-test. […]

resistin = assay: Resistin gene expression in MEF-derived adipocytes; format: cell-based, mouse; settings: 8 days of MEF adipocyte differentiation in adipogenic medium; compositions at f.c. 20, 100, 200 μg/mL; HA 80, DS 20 μg/mL
Protocol: MEFs obtained from embryos of 13 days gestational age were cultured in monolayer in growth medium consisting of […] (Invitrogen, Carlsbad, Calif., USA) basal medium supplemented with […] supplement (7.5%), foetal bovine serum (7.5%) and antibiotics, in 12-well culture plates of 1 mL capacity/well, following a previously described protocol (J. B. Hansen et al., Proc. Natl. Acad. Sci. USA 101, 4112-4117 (2004)). […] The mRNA levels of the genes related to adipocyte differentiation PPARgamma, C/EBPalpha and fatty acid synthase (FAS) were determined by real-time PCR from the total RNA extracted from the cells with Trizol reagent and reverse-transcribed with reverse transcriptase, and using the mRNA of beta-actin as an internal control. […] The statistical significance of differences with respect to treatment with the carrier was analyzed by means of Student's t-test. […] The mRNA levels of selected genes were determined by real-time PCR, as described in Example 1. […] Expression levels of the resistin gene were determined by real-time PCR, as described in Example 1.

With hyaluronic acid [HA80] the “clusters of cells spontaneously differentiated into adipocytes filled with fat droplets” value [1] was “presence of a number of clusters of cells spontaneously differentiated into adipocytes filled with fat droplets” and the expression of resistin (resistin) was “not reproduced”.
For dermatan sulphate [DS20], the “clusters of cells spontaneously differentiated into adipocytes filled with fat droplets” value [1] was “presence of a number of clusters of cells spontaneously differentiated into adipocytes filled with fat droplets” and the expression of resistin (resistin) was “not reproduced”.
